SMILES strings stand for the structures.

The test system of one data set is cytolytic activity of CD8+ T cells against allogenic (MBL-2) target cells. Briefly: Chromium release assay (in vitro cytotoxicity), B6+Balb+3% CD11b+ mixed leucocytes culture. It is filed as cell-based, mice. The settings on record: 5-h 51Cr-release.
Consider `NC(=O)c1c(COC(=O)c2ccc(O)cc2)no[n+]1[O-]` [AT45], for which the “Range of concentration to rescue cytolytic activity” value (shortened to “Range of concentration”) amounted to 72 µM.
As to `CC(=O)OCc1no[n+]([O-])c1C(N)=O` [AT24], the “Range of concentration” value is recorded as “INEFFECTIVE”.
On the same count and under the same terms, next, `NC(=O)c1c(COC(=O)c2ccccc2)no[n+]1[O-]` [AT44]: 76 µM.

A further data set concerns coloncarcinoma26. Description: Immunohistochemistry of tumors of tumor-bearing mice after oral AT38. Format: in vivo, BALB/c mice. The settings on record: 10, 30 and 100 mg/kg/day orally for nine days; compared to untreated controls.
On to `NC(=O)c1c(COC(=O)c2ccccc2O)no[n+]1[O-]` [AT38], for which the “CD3+ T tumor infiltrating lymphocytes” value is on record as “enhancement” and the nitrotyrosine staining entry was “strong reduction”.

System in a further data set: not given
Assay: not given
Conditions: not given
For orientation: melting point means the temperature, or range, at which the solid turns liquid. `NC(=O)c1c(COC(=O)c2ccc(N)cc2)no[n+]1[O-]` (hydrate or solvate) showed a melting point of 206 to 208 °C.
On the same count and under the same terms, next, `NC(=O)c1c(COC(=O)c2cccc(O)c2)no[n+]1[O-]` (hydrate or solvate): 203 to 204 °C; `NC(=O)c1c(COC(=O)c2ccc(Cl)cc2)no[n+]1[O-]`: 171 to 172 °C; `COc1ccc(C(=O)OCc2no[n+]([O-])c2C(N)=O)cc1` (hydrate or solvate): 175 to 176 °C.
Consider `N#Cc1ccc(C(=O)OCc2no[n+]([O-])c2C(N)=O)cc1`, for which the melting point fell in the range of 190 to 191 °C.
The compound `NC(=O)c1c(COC(=O)c2ccc([N+](=O)[O-])cc2)no[n+]1[O-]` (hydrate or solvate) displayed a melting point of 172 to 173 °C.
Still for that read-out and setting: then `NC(=O)c1c(COC(=O)c2ccccc2O)no[n+]1[O-]` (hydrate or solvate), with 176 to 177 °C.
On to `NC(=O)c1c(COC(=O)c2ccc(O)cc2)no[n+]1[O-]` (hydrate or solvate), for which the melting point lay within 241 to 242 °C.
On the same count and under the same terms, then `NC(=O)c1c(COC(=O)c2ccccc2)no[n+]1[O-]` (hydrate or solvate), with 163 to 165 °C; and `NC(=O)c1c(COC(=O)c2ccc(F)cc2)no[n+]1[O-]` (hydrate or solvate), with 163 to 164 °C; and `Cc1ccc(C(=O)OCc2no[n+]([O-])c2C(N)=O)cc1` (hydrate or solvate), with 149 to 150 °C.

The next data set has as its system cytolytic activity of CD8+ T cells against allogenic (MBL-2) target cells. Briefly: Chromium release assay (in vitro cytotoxicity), B6+C26GM culture: immunosuppressed splenocytes from tumor-bearing mice. Format: cell-based. The settings on record: strong immunosuppressive conditions, 5-h 51Cr-release.
Take `NC(=O)c1c(COC(=O)c2ccc(O)cc2)no[n+]1[O-]` [AT45]: the “Range of concentration” value is 100 µM.
For `NC(=O)c1c(COc2ccc(C(=O)O)c(O)c2)no[n+]1[O-]` [AT43], the “Range of concentration” value is given as “INEFFECTIVE”.
Still for that read-out and setting: next, `NC(=O)c1c(COC(=O)c2cccc(O)c2)no[n+]1[O-]` [AT47]: 50 µM.
With `CC(=O)OCc1no[n+]([O-])c1C#N` [AT25], the “Range of concentration” value is given as “INEFFECTIVE”.
Same read-out and setting: next, `NC(=O)c1c(COC(=O)/C=C/c2ccccc2O)no[n+]1[O-]` [AT113]: 100 µM.
In the case of `CC(=O)Oc1ccccc1C(=O)OCc1no[n+]([O-])c1C(N)=O` [AT27], the “Range of concentration” value came to 25 µM.
On the same count and under the same terms, next, `NC(=O)c1c(S(=O)(=O)c2ccccc2)no[n+]1[O-]` [AT94]: “INEFFECTIVE”.
Same read-out and setting: then `CC(=O)OCc1no[n+]([O-])c1C(N)=O` [AT24], with “INEFFECTIVE”.
Consider `NC(=O)c1c(COC(=O)c2ccccc2O)no[n+]1[O-]` [AT38], for which the “Range of concentration” value was 25 µM.
The same measure, in the same setting: next, `NC(=O)c1c(COC(=O)/C=C/c2ccccc2)no[n+]1[O-]` [AT110]: 100 µM; `NC(=O)c1c(COC(=O)c2ccccc2)no[n+]1[O-]` [AT44]: “INEFFECTIVE”; `NC(=O)c1c(COC(=O)c2cccnc2)no[n+]1[O-]` [AT112]: 200 µM.

For the origin of these results see patent US8592464B2, “Nitric oxide furoxan derivative compounds endowed with antitumoral activity” (Humanitas Mirasole S.p.A., priority 2009, dated 2013).
